Reference: patent publication US20260364181A1, “AKR1C3 Targeted Heterobifunctional Small Molecule Proteolysis Targeting Chimeras” (BOARD OF REGENTS OF THE UNIVERSITY OF NEBRASKA, priority 2022, published 2026)

Columns and labels:
Assay type in all cases: cell-based
AKR1C3 [1] = target: T1, AKR1C3 (Homo sapiens, UniProt P42330); test: AKR1C3 protein degradation in 22Rv1 prostate cancer cells (Western blot); design: 22Rv1 prostate cancer cells that express high levels of AKR1C3; host or cells: 22Rv1
T1 sequence (P42330 1-323): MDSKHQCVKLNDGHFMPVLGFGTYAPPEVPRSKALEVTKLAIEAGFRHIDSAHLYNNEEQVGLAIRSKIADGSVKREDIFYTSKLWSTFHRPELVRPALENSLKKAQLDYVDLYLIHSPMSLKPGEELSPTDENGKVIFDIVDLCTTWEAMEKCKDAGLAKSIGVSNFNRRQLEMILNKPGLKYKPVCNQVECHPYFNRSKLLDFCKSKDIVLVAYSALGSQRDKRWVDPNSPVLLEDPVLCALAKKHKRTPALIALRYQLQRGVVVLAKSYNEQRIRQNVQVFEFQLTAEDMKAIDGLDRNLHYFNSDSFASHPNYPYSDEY
Procedure: Protein Expression via Western Blot. 22Rv1 cells were seeded in a 6-well plate and incubated overnight. Next day, the cells were treated with varying concentrations of 6 (1 and 10 μM) and 5 (0.5, 1, 10, 50, 100, 250, and 500 nM; 1, 10, and 50 μM) for 24 hours and 5 (1 and 10 nM) at different time points (0, 2, 4, 6, 12, 16, 24, 48, and 72 h). Whole cell lysates were extracted in RIPA lysis buffer containing protease inhibitor and EDTA (Fisher Scientific, PI78440). Protein concentrations in each sample was estimated following BCA assay (Pierce™ BCA protein assay kit, Fisher Scientific, PI23227) as per the manufacturer's protocol. Proteins were standardized using RIPA lysis buffer with Laemelli SDS sample buffer (Thermo Scientific, AAJ61337AC) and heated at 1000C for 15 minutes. The proteins were resolved on a 4-12% premade gel (Invitrogen, NW04120BOX) at 60-90 V in 20× Bolt™ MES SDS running buffer (Fisher Scientific, B000202) and transferred onto a nitrocellulose membrane (Invitrogen, IB23001) using iBlot 2. The membranes were blocked with 2.5% non-fat dry milk (Bio-Rad, 1706404) for 1 h, and the membrane was incubated overnight on a rocking platform at 4 °C with the desired primary antibodies against AKR1C3 (mouse mAb, 1:200, Sigma, A6229), AKR1C1/C2 (rabbit mAb, 1:500, Abcam, ab179448), ARv7 (rabbit mAb, 1:500, Abcam, ab198394) and actin (mouse mAb, 1:1,000, ThermoFisher, MA5-11869). The membranes were washed three times, 10 minutes each, with 1×Tris-buffered saline (TBST, Bio-Rad, 1706435) in 0.1% Tween 20, on a rocking platform wherein they were incubated with rabbit anti-mouse IgG (ThermoFisher, 31450) or goat anti-rabbit IgG (Jackson ImmunoResearch, 111-035-003) secondary antibody (1:1,000) horseradish peroxidase conjugate for 1 hour. The membranes were again washed three times with 1×TBST, upon which they were exposed to LI-COR WesternSure PREMIUM chemiluminescent substrate (Fisher Scientific, 50-489-552) and developed in a dark room with Konica Minolta equipment. Bands were quantified by densitometry using ImageJ software and fold change in AKR1C3, AKR1C1/C2, and ARv7 protein expression was determined based on actin controls. […]
The AKR1C3 degradation effect of PROTAC 5 was screened across a range of concentrations to identify a suitable treatment protocol. 22Rv1 cells were treated with increasing concentrations of […], DMSO or lenalidomide 6 at 1 μM and 10 μM for 24 hours, and the degradation profile was determined by Western blot analysis with antibody for AKR1C3.

AKR1C3 [2] = target: T1, AKR1C3; test: as above; design: 22Rv1 prostate cancer cells that express high levels of AKR1C3; host or cells: 22Rv1; settings: read-out: AKR1C3 DC50 (half-maximal degradation concentration); 72 hours
[3] = tested on: 22Rv1 prostate cancer cells; test: 22Rv1 cell viability (MTS assay); settings: 72 h
Procedure: Cell culture and reagents. 22Rv1 cells were purchased from the American Type Culture Collection (ATCC in 2016) and cultured in RPMI 1640 supplemented with 10% Fetal Bovine Serum (FBS, Fisher Scientific, MT35011CV) and Penicillin-Streptomycin Solution (1%, Fisher Scientific, MT30001Cl) at 37 °C in a humidified incubator with 5% carbon dioxide atmosphere. Stock solutions of E3 ligase ligand, lenalidomide 6 (10 mM), PROTAC 5 (25 mM), and AKR1C3 inhibitor 3 (100 mM) were prepared in DMSO.
Cell viability assay. Cells were seeded at a density of 10,000 cells/well in a 96-well plate containing 100 μL growth media per well and were incubated at 37 °C in a humidified incubator with 5% carbon dioxide over ~18-24 hours. Cells were treated with 6, 5, and 3 serially diluted at the indicated concentrations limiting the final DMSO concentration to less than 0.1% and incubated at 37 °C for 72 hours. 10 μL of MTS reagent (CellTiter96®Aqueous One Solution Reagent, Promega, G3580) was added to each well and incubated at the above-mentioned conditions for 4 hours. Absorbance was recorded at OD 490 nm on a Synergy LX multi-mode reader and the viability of cells were plotted as percentage of DMSO control.

O=C(O)/C=C/c1cc(C(=O)NCc2ccc(OCc3cn(CCOCCOCC(=O)Nc4cccc5c4CN(C4CCC(=O)NC4=O)C5=O)nn3)cc2)cc(-c2ccccc2)c1 (centres unmarked) [Compound IA, (E)-3-(5-((4-((1-(2-(2-(2-((2-(2,6-dioxopiperidin-3-yl)-1-oxoisoindolin-4-yl)amino)-2-oxoethoxy)ethoxy)ethyl)-1H-1,2,3-triazol-4-yl)methoxy)benzyl)carbamoyl)-[1,1 ? biphenyl]-3-yl)acrylic acid]
mean AKR1C3 degradation (AKR1C3 [1]; 0.5 nM, 24 h, in words): no degradation
time course of AKR1C3 levels (AKR1C3 [1]; 1 nM, 24 through 72 hours post-treatment, in words): time-dependent decrease in AKR1C3 levels
onset of decrease in AKR1C3 levels (AKR1C3 [1]; 1 nM, post-treatment): 24 h
degradation of AKR1C3 (in words) (AKR1C3 [1]; 10 nM, 0-72 h): significant degradation
AKR1C3 degradation after proteasome inhibitor pretreatment (AKR1C3 [1]; 10 nM, 2 hour pretreatment with MG132 (3 μM), in words): effectively blocked
AKR1C3 protein expression (AKR1C3 [1]; 10 nM, 4 hours of treatment, in words): effectively reduced AKR1C3 protein expression
AKR1C3 degradation compared with Compound 3 (AKR1C3 [1]; 10 nM, 72 hour incubation, in words): outperformed Compound 3
onset of AKR1C3 degradation (AKR1C3 [1]; 10 nM, post-treatment): 4 h
AKR1C3 expression (AKR1C3 [1]; 1-50 μM, 24 h, in words): increased AKR1C3 expression
Dmax at 0.01 µM (AKR1C3 [1]; 22Rv1, 10 nM, 72 hours, read-out: maximal degradation of AKR1C3): ~75%
AKR1C3 expression (AKR1C3 [1]; 100-500 nM, 24 h, in words): increased AKR1C3 expression
DC50 (AKR1C3 [2]): 0.052 µM
22Rv1 cell viability activity in words [3]: equipotent
IC50 ([3]; Homo sapiens, 22Rv1, MTS, mean±standard deviation of two independent experiments): 49.3 ± 1.4 µM
